Tests used:
Assay in all cases: differential drug sensitivity score (dDSS) relative to sarcoma reference cohort mean DSS (DSS units (0-100 scale difference)); higher = more selective sensitivity than reference sarcomas
Conditions in all cases: exposure time: 72 h; concentration range: 10-10000 nM
[1] = system: CDS-ZH002 (patient-derived CIC-DUX4 sarcoma tumoroid)
Method: (§1)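 Drug response profiling of patient-derived Ewing sarcoma and CIC::DUX4 sarcoma tumoroid models (or cells tested directly after isolation from the tumor, 'direct'). The DSS is the normalised AUC (0-100); dDSS is the sample DSS minus the mean DSS of a 34-sarcoma reference cohort profiled in the same lab.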

[2] = system: ES-ZH016 direct (Ewing sarcoma cells right after isolation)
Method: as §1

[3] = system: ES-ZH008 (patient-derived Ewing sarcoma tumoroid)
Method: as §1

[4] = system: CDS-ZH001 (patient-derived CIC-DUX4 sarcoma tumoroid)
Method: as §1

[5] = system: ES-ZH001 (patient-derived Ewing sarcoma tumoroid)
Method: as §1

[6] = system: ES-ZH004 (patient-derived Ewing sarcoma tumoroid)
Method: as §1

[7] = system: ES-ZH016 (patient-derived Ewing sarcoma tumoroid)
Method: as §1

[8] = system: ES-ZH009 (patient-derived Ewing sarcoma tumoroid)
Method: as §1

[9] = system: CDS-ZH002 direct (CIC-DUX4 sarcoma cells right after isolation)
Method: as §1

[10] = system: ES-ZH007 (patient-derived Ewing sarcoma tumoroid)
Method: as §1

[11] = system: ES-ZH002 (patient-derived Ewing sarcoma tumoroid)
Method: as §1

[12] = system: CDS-ZH001-2 (patient-derived CIC-DUX4 sarcoma tumoroid)
Method: as §1

[13] = system: CDS-ZH003 (patient-derived CIC-DUX4 sarcoma tumoroid)
Method: as §1

Compound | differential drug sensitivity score [1] | differential drug sensitivity score [2] | differential drug sensitivity score [3] | differential drug sensitivity score [4] | differential drug sensitivity score [5] | differential drug sensitivity score [6] | differential drug sensitivity score [7] | differential drug sensitivity score [8] | differential drug sensitivity score [9] | differential drug sensitivity score [10] | differential drug sensitivity score [11] | differential drug sensitivity score [12] | differential drug sensitivity score [13]
CO[C@H]1C[C@@H]2CC[C@@H](C)[C@@](O)(O2)C(=O)C(=O)N2CCCC[C@H]2C(=O)O[C@H]([C@H](C)C[C@@H]2CC[C@@H](OC(=O)C(C)(CO)CO)[C@H](OC)C2)CC(=O)[C@H](C)/C=C(\C)[C@@H](O)[C@@H](OC)C(=O)[C@H](C)C[C@H](C)/C=C/C=C/C=C/1C [Temsirolimus] | -7 | -6.2 | 3.1 | 0.8 | 6.2 | 8.3 | -3 | 11.1 | 4.8 | 5.9 | 15.8 | 4 | 2.1
C[C@]1(O)C[C@@H](c2nc(-c3ccc4ccc(-c5ccccc5)nc4c3)c3c(N)nccn32)C1 [Linsitinib] | -5 | 3.2 | 4.9 | 3.8 | 0.8 | 3.2 | 6.8 | 3.7 | -5.9 | 3 | 15.2 | 5.7 | 5.7
C[C@H]1Oc2cc(cnc2N)-c2c(nn(C)c2C#N)CN(C)C(=O)c2ccc(F)cc21 [Lorlatinib] | -1.4 | -1.1 | -3.5 | 11.6 | -1.4 | -4.3 | 1.2 | -2.4 | 4.2 | -0.9 | 5.9 | 6.9 | 1.5
COc1cc2nccc(Oc3ccc(NC(=O)NC4CC4)c(Cl)c3)c2cc1C(N)=O [Lenvatinib] | -2.4 | -2.4 | 5 | -2.4 | 3.9 | 0.5 | -2.4 | -2.4 | -2.4 | -1.2 | 5.8 | -2.4 | -2.4
COc1cccc(-c2cc(F)ccc2[C@H]2Cc3nc(N)nc(C)c3C(=O)N2)n1 [HSP-990] | -9.2 | 4.9 | 7.1 | 1.4 | 3.8 | -0.8 | 3.4 | 6 | -4 | 1.2 | 8.8 | 0.3 | 1.3
COc1nc(N)nc2c1ncn2[C@@H]1O[C@H](CO)[C@@H](O)[C@@H]1O [Nelarabine] | -2.5 | -2.5 | 5.2 | -2.5 | 3.2 | 1 | -2.5 | -2.5 | -2.5 | -1.6 | 8.4 | -2.5 | -2.5
CNC(=O)c1cc(Oc2ccc(NC(=O)Nc3ccc(Cl)c(C(F)(F)F)c3)c(F)c2)ccn1 [Regorafenib Monohydrate] | -3 | 1.8 | 8.9 | 1.3 | 11.6 | 5.5 | -1.1 | 5.8 | 1.5 | 0.4 | 13.6 | -2.3 | -3.4
COC(=O)C[C@](O)(CCCC(C)(C)O)C(=O)O[C@@H]1C(OC)=C[C@]23CCCN2CCc2cc4c(cc2[C@H]13)OCO4 [Homoharringtonine] | 6.3 | 2.7 | 13.3 | 10.1 | 3.5 | 1.9 | 3.1 | 6 | 10 | 10 | 9.7 | 10.7 | 1
CCS(=O)(=O)N1CCC([C@@H](C)n2c(C)c(C(=O)NCc3c(OC)cc(C)[nH]c3=O)c3ccccc32)CC1 [CPI169] | -0.4 | 3.3 | -0.4 | -0.4 | -0.4 | -0.4 | -0.4 | -0.3 | -0.4 | -0.4 | -0.4 | -0.4 | -0.3
Cc1[nH]c2ccccc2c1CCNCc1ccc(/C=C/C(=O)NO)cc1 [Panobinostat] | -1.1 | 7.4 | 6.6 | -2.7 | 3.6 | 5.4 | 6.6 | 10.3 | 2 | 6.3 | 4 | 4.9 | -3.6
CCN1CCN(c2ccc(Nc3cc(N(C)C(=O)Nc4c(Cl)c(OC)cc(OC)c4Cl)ncn3)cc2)CC1 [Infigratinib] | -6.1 | 1.6 | -6.1 | -1.9 | -4 | -3.9 | -4 | -0.1 | 2.3 | -3.2 | 2 | -1.1 | -1.3
COc1ncc(-c2ccc3nccc(-c4ccnnc4)c3c2)cc1NS(=O)(=O)c1ccc(F)cc1F [Omipalisib] | -4.5 | 2.7 | 11.4 | 6.3 | -3.7 | 0.9 | 2 | 9 | -3.7 | 6.3 | 12.8 | 8.8 | 5.6
COc1ccc(C2=N[C@@H](c3ccc(Cl)cc3)[C@@H](c3ccc(Cl)cc3)N2C(=O)N2CCNC(=O)C2)c(OC(C)C)c1 [Nutlin-3] | -1.3 | 14 | 1.4 | -1.8 | -4.6 | -4.6 | 3.3 | -4.4 | 1 | -4.6 | 8 | 8.4 | 3.6
Nc1ncc(-c2nc(N3CCOCC3)nc(N3CCOCC3)n2)c(C(F)F)n1 [PQR514] | -6.5 | 5.4 | 10.1 | 3.9 | -3.3 | 0.8 | 5 | 7.1 | -2.6 | -1.3 | 15.5 | 7 | -0.5
Cn1ncc(Cl)c1-c1cc(C(=O)N[C@H](CN)Cc2ccc(F)c(F)c2)oc1Cl [Uprosertib] | -3.2 | -3.2 | 11.2 | 3.3 | -2.4 | 7.2 | 1 | 5.6 | -6 | 1 | 10.7 | 3.3 | -2.5
N[C@@H]1CCCN(c2c(/C=C3\SC(=O)NC3=O)cccc2-c2ccccc2)C1 [AZD1208] | 1.2 | -2.9 | 1.8 | 8.2 | -0.4 | -0.8 | -2.9 | 3.6 | 1.1 | -2.9 | 0 | 2 | 13.6
Cc1c(C(=O)Nc2ccc(N3C[C@@H](C)O[C@@H](C)C3)nc2)cccc1-c1ccc(OC(F)(F)F)cc1 [Sonidegib] | -1.4 | -1.4 | -1.4 | -1.4 | -1.1 | -1.4 | -1.4 | -1.4 | -1.4 | -1.4 | -1.1 | -1.4 | 2.3
CN1CC[C@@H](NC(=O)Nc2ccc(C#N)cc2)C[C@@H]1c1nc2ccccc2[nH]1 [Glasdegib] | -0.8 | -0.8 | -0.8 | -0.8 | -0.8 | -0.8 | -0.8 | -0.8 | -0.8 | -0.8 | 1.3 | -0.8 | 2.5
C=CC(=O)Nc1cccc(Nc2nc(Nc3ccc(OCCOC)cc3)ncc2F)c1 [Spebrutinib] | -2.9 | 4.7 | 4.7 | -2.5 | 1.8 | 3.7 | -1.4 | -2 | -3.5 | -1.6 | 8.3 | -3.1 | -2.8
C[C@@H]1COCCN1c1cc(C2([S@](C)(=N)=O)CC2)nc(-c2cc[nH]c3nccc2-3)n1 [Ceralasertib] | -0.4 | 13.8 | 9.7 | 0 | 5.9 | 5.7 | 4.5 | 2.1 | -2.5 | 3 | 12 | 0.7 | -4.4
O=C(NCC1CCOCC1)c1cnc(Nc2ccc(Cl)cc2Cl)nc1C(F)(F)F | -0.5 | -0.5 | -0.5 | -0.5 | -0.5 | -0.5 | -0.5 | -0.5 | -0.5 | -0.5 | -0.5 | -0.5 | -0.5
C[C@H](Nc1ncnc2nc[nH]c12)c1cc2cccc(Cl)c2c(=O)n1-c1ccccc1 [Duvelisib] | 1.2 | 4.2 | -1.1 | 4.2 | -5.6 | -4.4 | 3.4 | 9.1 | 0.6 | -2.7 | 1.9 | 4.4 | -1.2
CO[C@@H](C)Cn1c(=O)n(C)c2cnc3ccc(-c4cncc(C(C)(C)O)c4)cc3c21 [Samotolisib] | -8.8 | -2.7 | 10.9 | 2.3 | 1 | 2.3 | 6 | 7.1 | 4.5 | 2.6 | 12.2 | 0.9 | 0.5
Nc1ccccc1NC(=O)c1ccc(CNc2nccc(-c3cccnc3)n2)cc1 [Mocetinostat] | -2.7 | 7.8 | 7.1 | -3.3 | 0.8 | 8.4 | 1.4 | 1.8 | -0.9 | 2.6 | 2.4 | 1.5 | -9
CC1(COc2ccc3c(c2)ncn3-c2ccc3cccc(N4CCC(N)CC4)c3n2)COC1 [Crenolanib] | -2.3 | 1.2 | -0.6 | 2.5 | 4 | 2.9 | -1.3 | 2.8 | -1.7 | 4 | 3.4 | 1.4 | -4.2
CCN(CC)CCNC(=O)c1c(C)[nH]c(/C=C2\C(=O)Nc3ccc(F)cc32)c1C [Sunitinib] | -1.4 | 6.4 | -0.8 | 3.2 | 7.6 | 2.3 | 0.7 | 1.7 | -2 | 2.2 | 8.5 | 3.9 | -3.3
CCN(CCCOc1ccc2c(Nc3cc(CC(=O)Nc4cccc(F)c4)[nH]n3)ncnc2c1)CCOP(=O)(O)O [Barasertib] | -3 | 23.8 | 17.5 | -8.9 | 32.8 | 10.1 | 22.6 | 27.6 | -3 | 4.7 | 26.1 | 4.6 | -8.9
Nc1cc(C(F)(F)F)c(-c2cc(N3CCOCC3)nc(N3CCOCC3)n2)cn1 [Buparlisib] | -2.2 | 0.6 | 4.6 | 3.3 | 1.5 | -2.2 | -0.6 | 2.5 | -2.5 | -0.1 | 7.6 | 2.9 | 6.9
O=C(c1ccc(Nc2nccc(-c3cc4ccccc4s3)n2)cc1)N1CCC(N2CCCC2)CC1 [IKK16] | -4 | 0.1 | 0 | -0.1 | -2.5 | -4.1 | -4.4 | 0.4 | 0.3 | -0.6 | 2.3 | 0 | 0.7
